Laboratory results reported in patent publication US20250161308A1, “Methods of Treating Covid-Related Disorders” (priority 2022, published 2025).
Read-outs that look alike come from different tables or passages of the source. Where a SMILES comes first, the peptide text is derived from it. [ ]: non-standard residue; d: D form. The star is where a group is joined. Hexanoyl = CCCCCC(=O)*; Ahx = NCCCCCC(=O)O

Columns and labels:
[1] = system: Rat primary cortical neuron cultures; assay type: cell-based; settings: for Significance of neuroprotection vs 1 uM LPS: 24 h LPS
[2] = system: Rat hippocampal neurons; test: Neurite outgrowth assay; assay type: cell-based
[3] = system: THP1-differentiated macrophages; assay type: cell-based, human; design: key to Significant reduction in IL-6 / Significant reduction in TNF-α / Significant reduction in IL-1β: NS: indicates a non-significant reduction in the indicated cytokine; +: indicates a p value<0.05 in Tukey post test; ++: indicates a p value<0.01 in Tukey post test; settings: for Significant reduction in IL-1β / Significant reduction in IL-6 / Significant reduction in TNF-α: 24 hrs LPS
[4] = system: pulmonary LPS-stimulated rats; test: Immune cell infiltration in BALF, LPS acute pulmonary inflammation; assay type: in vivo, rat; settings: rat, in vivo
[5] = system: pulmonary LPS-stimulated rats; test: Cytokine expression in BALF supernatant (multiplex immunoassay), LPS acute pulmonary inflammation; assay type: in vivo, rat; settings: 3 mg/kg IP
[6] = system: LPS-induced cognitive deficit in CD-1 mice; test: Rodent LPS model of brain inflammation, T-maze spontaneous alternation; assay type: in vivo, mouse; settings: for Recovery (%) / Spontaneous alternation (%) Mean: LPS 250 μg/kg
[7] = system: bleomycin-induced pulmonary fibrosis in C57BL/6 mice; test: Bleomycin-induced pulmonary fibrosis; assay type: in vivo, mouse
[8] = system: Rat hippocampal neurons; test: Synaptogenesis assay; assay type: cell-based
[9] = 100 mg/kg po BID, right lung homogenate

CCCCCC(=O)N[C@@H](Cc1ccc(O)cc1)C(=O)N[C@H](C(=O)NCCCCCC(N)=O)[C@@H](C)CC [A19 active metabolite, N-hexanoic-Tyr-Ile-(6)aminohexanoic amide] (Hexanoyl-Tyr-Ile-[Ahx]-NH2)
Significance of neuroprotection vs 1 uM LPS ([1]; 0.1 nM): +++ (+++ indicates p<0.001)
Significance of neuroprotection vs 1 uM LPS ([1]; 1 nM): ++ (++ indicates p<0.01)
Significance of neuroprotection vs 1 uM LPS ([1]; 10 nM): +++ (+++ indicates p<0.001)
Significance of neuroprotection vs 1 uM LPS ([1]; 100 nM): ++ (++ indicates p<0.01)
Significance of neuroprotection vs 1 uM LPS ([1]; 1 μM): ++ (++ indicates p<0.01)
protection of primary neurons from LPS-stimulated inflammatory toxicity ([1]; at at least one dose tested): protected primary neurons from LPS-stimulated inflammatory toxicity
neurite length / extension of neurites (in words) [2]: promoted the extension of neurites
Significant increase in: Neurite length ([2]; 10 nM, Table 3 study): ++++ (++++ = p < 0.0001)
Significant reduction in IL-1β ([3]; 0.1 nM): NS
Significant reduction in IL-6 ([3]; 0.1 nM): NS
Significant reduction in TNF-α ([3]; 0.1 nM): NS
Significant reduction in IL-1β ([3]; 10 nM): ++ (indicates a p value<0.01 in Tukey post test)
Significant reduction in IL-6 ([3]; 10 nM): + (indicates a p value<0.05 in Tukey post test)
Significant reduction in TNF-α ([3]; 10 nM): + (indicates a p value<0.05 in Tukey post test)
Significant reduction in IL-1β ([3]; 1000 nM): + (indicates a p value<0.05 in Tukey post test)
Significant reduction in IL-6 ([3]; 1000 nM): ++ (indicates a p value<0.01 in Tukey post test)
Significant reduction in TNF-α ([3]; 1000 nM): ++ (indicates a p value<0.01 in Tukey post test)
expression of IL-1β (in words) ([3]; at at least one tested dose): significantly reduced the expression of IL-1β and TNF-α
expression of IL-6 (in words) ([3]; at at least one tested dose): significantly reduced the expression of IL-6
expression of TNF-α (in words) ([3]; at at least one tested dose): significantly reduced the expression of IL-1β and TNF-α

C[C@]12CCC(=O)C[C@@H]1CC[C@@H]1[C@@H]2CC[C@]2(C)[C@@H](O)CC[C@@H]12 [DHT, alpha-dihydrotestosterone, reference compound]
Significant increase in: Neurite length [2]: + (key: NS = not significant; + = p < 0.05; ++++ = p < 0.0001)

C[C@@H]1C[C@H]2[C@@H]3CCC4=CC(=O)C=C[C@]4(C)[C@@]3(F)[C@@H](O)C[C@]2(C)[C@@]1(O)C(=O)CO [Dex, Dexamethasone]
Neutrophils in BALF, reduction vs disease control [4]: +++ (key: + = >5% reduction in cell count vs disease control; ++ = >25% reduction in cell count vs disease control; +++ = >75% reduction in cell count vs disease control)
Total Leukocytes in BALF, reduction vs disease control [4]: +++ (key: + = >5% reduction in cell count vs disease control; ++ = >25% reduction in cell count vs disease control; +++ = >75% reduction in cell count vs disease control)
CCL2, significant change in expression in BALF supernatant [5]: + (+ = Significant change in cytokine quantification, p < 0.05 by Student's T-test.)
CCL3, significant change in expression in BALF supernatant [5]: + (+ = Significant change in cytokine quantification, p < 0.05 by Student's T-test.)
CCL5, significant change in expression in BALF supernatant [5]: + (+ = Significant change in cytokine quantification, p < 0.05 by Student's T-test.)
CCL11, significant change in expression in BALF supernatant [5]: + (+ = Significant change in cytokine quantification, p < 0.05 by Student's T-test.)
CX3CL1, significant change in expression in BALF supernatant [5]: + (+ = Significant change in cytokine quantification, p < 0.05 by Student's T-test.)
CXCL1, significant change in expression in BALF supernatant [5]: + (+ = Significant change in cytokine quantification, p < 0.05 by Student's T-test.)
CXCL5, significant change in expression in BALF supernatant [5]: + (+ = Significant change in cytokine quantification, p < 0.05 by Student's T-test.)
CXCL10, significant change in expression in BALF supernatant [5]: + (+ = Significant change in cytokine quantification, p < 0.05 by Student's T-test.)
EGF, significant change in expression in BALF supernatant [5]: + (+ = Significant change in cytokine quantification, p < 0.05 by Student's T-test.)
IFN-γ, significant change in expression in BALF supernatant [5]: + (+ = Significant change in cytokine quantification, p < 0.05 by Student's T-test.)
IL-1α, significant change in expression in BALF supernatant [5]: + (+ = Significant change in cytokine quantification, p < 0.05 by Student's T-test.)
IL-1β, significant change in expression in BALF supernatant [5]: + (+ = Significant change in cytokine quantification, p < 0.05 by Student's T-test.)
IL-5, significant change in expression in BALF supernatant [5]: + (+ = Significant change in cytokine quantification, p < 0.05 by Student's T-test.)
IL-6, significant change in expression in BALF supernatant [5]: + (+ = Significant change in cytokine quantification, p < 0.05 by Student's T-test.)
IL-10, significant change in expression in BALF supernatant [5]: + (+ = Significant change in cytokine quantification, p < 0.05 by Student's T-test.)
IL-12p70, significant change in expression in BALF supernatant [5]: + (+ = Significant change in cytokine quantification, p < 0.05 by Student's T-test.)
IL-13, significant change in expression in BALF supernatant [5]: + (+ = Significant change in cytokine quantification, p < 0.05 by Student's T-test.)
IL-17A, significant change in expression in BALF supernatant [5]: + (+ = Significant change in cytokine quantification, p < 0.05 by Student's T-test.)
TNF-α, significant change in expression in BALF supernatant [5]: + (+ = Significant change in cytokine quantification, p < 0.05 by Student's T-test.)

CC12CC3CC(C)(C1)CC(N)(C3)C2 [Memantine, reference compound]
Recovery (%) ([6]; 0.1 mg/kg i.p. 14 days): 76%
Spontaneous alternation (%) Mean ([6]; 0.1 mg/kg i.p. 14 days): 63.6%
Spontaneous alternation (%) Mean ([6]; 0.1 mg/kg i.p. 14 days, listed as memantine): 64%
Recovery (%) ([6]; 1 mg/kg i.p. 14 days): 38%
Spontaneous alternation (%) Mean ([6]; 1 mg/kg i.p. 14 days): 54.3%
Spontaneous alternation (%) Mean ([6]; 1 mg/kg i.p. 14 days, listed as memantine): 54%
significance of reversal of LPS-induced cognitive deficit (in words) ([6]; T-maze): significant at both doses

Cc1ccc(=O)n(-c2ccccc2)c1 [Pirfenidone, reference compound]
Right Lung Weight, improvement versus disease control ([7]; 100 mg/kg po BID, day 21): + (+ => 5-25% improvement v disease control)
Collagen, improvement versus disease control [7, 9]: ++ (++ => 26-50% improvement v disease control)
TGF-Beta, improvement versus disease control [7, 9]: +++ (+++ => 51-100% improvement v disease control)
protection against bleomycin-induced increases in TGF-β (in words) ([7]; all doses, day 21): significantly protected against bleomycin-induced increases in TGF-β
protection against body weight loss (in words) ([7]; all treatment groups): did not protect against body weight loss

HGF: hepatocyte growth factor, used as a positive control at 5 ng/ml
neurite length / extension of neurites (in words) [2]: increase both neurite length and synapse count
Significant increase in: Neurite length ([2]; 5 ng/ml, Table 4 study): +++ (+++ = p < 0.0005)
synapse counts (in words) [8]: increase both neurite length and synapse count
Significant increase in: Synapses ([8]; 5 ng/ml, Table 4 study): ++++ (++++ = p < 0.0001)
